Assay results taken from US4992439A, “Pyridazine carboxylic acids and esters” (Bristol-Myers Squibb Company, priority 1990, dated 1991).
Values after ≈ are worked out from the molar mass of the structure shown.

System: human platelet aggregation (ADP-induced)
Assay type: cell-based
Settings: human platelet rich plasma; ADP final concentration 0.5 mcg/mL; compounds in DMSO; read-out: Inhibition of Human Platelet Aggregation, IC50 vs. ADP
Description: The aggregometer method of Born, C.V.R., J. Physiol., (London), 1962, 162, 67-68, as modified by Mustard, J. F., et al., J. Lab. Clin. Med. 1964, 64, 548-599 was used to assess the in vitro activity of the various compounds as to the inhibition of adenosine diphosphate (ADP) and collagen-induced platelet aggregation. The human volunteer donor's arm is cleansed with 70% ethyl alcohol. A sterile 20 ml syringe and needle are used to withdraw 20 ml of blood. The blood is immediately added to a test tube containing 3.8% sodium citrate to prevent clotting (1 part citrate to 9 parts blood).
Platelet rich plasma (PRP) was separated by centrifugation for 10 minutes at 1000 rpm (140 xg) from citrated (3.8%) human blood. All glassware used for preparation of PRP is silicon treated. ADP in final concentration of 0.5 mcg/mL or 0.05 mL of a collagen suspension prepared according to the method described by Evans, G., et al., J. Exp. Med., 1968, 128, 877-894 was used to induce aggregation. The various compounds tested were dissolved in dimethylsulfoxide (DMSO) so that 5 mcl added to the platelet rich plasma would yield the desired test concentration. Vehicle control trials were done and compared with aggregation induced in platelet rich plasma containing various concentrations of the test compounds. Dose response curves were obtained and Inhibitor Concentration (IC50) values calculated.

## COC(=O)COc1cccc(CCn2nc(-c3ccccc3)c(-c3ccccc3)cc2=O)c1 [Example 5, Methyl [3-[2-(1,6-dihydro-6-oxo-3,4-diphenyl-1-pyridazinyl)ethyl]phenoxy]acetate]
  IC50: 0.75 µg/mL (≈ 1.7 µM)

## O=C(O)CCCCCCCCn1nc(-c2ccccc2)c(-c2ccccc2)cc1=O [Example 2, 6-Oxo-3,4-diphenyl-1(6H)-pyridazinenonanoic acid]
  IC50: 2.9 µg/mL (≈ 7.17 µM)

## O=C(O)CCCCCCCn1nc(-c2ccccc2)c(-c2ccccc2)cc1=O [Example 4, 6-Oxo-3,4-diphenyl-1(6H)-pyridazinyloctanoic Acid]
  IC50: 1.6 µg/mL (≈ 4.1 µM)

## COC(=O)CCCCCCCCn1nc(-c2ccccc2)c(-c2ccccc2)cc1=O [Example 1, Methyl 6-oxo-3,4-diphenyl-1(6H)-pyridazinenonanoate]
  IC50: 21 µg/mL (≈ 50.2 µM)

## O=C(O)COc1cccc(CCn2nc(-c3ccccc3)c(-c3ccccc3)cc2=O)c1 [Example 6, [3-[2-(1,6-Dihydro-6-oxo-3,4-diphenyl-1-pyridazinyl)ethyl]phenoxy]acetic Acid]
  IC50: 1 µg/mL (≈ 2.34 µM)

## COC(=O)CCCCCCCn1nc(-c2ccccc2)c(-c2ccccc2)cc1=O [Example 3, Methyl 6-Oxo-3,4-diphenyl-1(6H)pyridazinyloctanoate]
  IC50: 7.7 µg/mL (≈ 19 µM)
